Experimental data taken from US5663417A, “Carbocyclic sulfonamides” (Ono Pharmaceutical Co., Ltd., priority 1993, dated 1997).
Like-named read-outs stand apart in the source and are kept apart here.

Molecular target: prostaglandin E2 receptor
Assay: inhibition of [^3 H]-PGE2 receptor binding in rat uterus membrane fraction
Settings: 5 nM [^3 H]-PGE2, rat uterus crude membrane fraction, pH 6.0, 1 hour at room temperature, read-out: IC50, inhibitory effects of PGE2 receptor binding in rat
Protocol: (i) The measurement of the inhibition of [^3 H]-PGE2 receptor binding
The standard assay mixture contained 5 nM [^3 H]-PGE2 (50 μl), test compounds (50 μl) and crude membrane fraction obtained from rat uterus (1.2 mg protein/ml, 100 μl) in a final volume of 200 μl (10 mM potassium phosphate pH 6.0, 0.1M NaCl (buffer A)). After incubation for 1 hour at room temperature, the reaction was stopped by the addition of 3 ml of ice-cold buffer A, after which the mixture was rapidly filtered through a Whatman GF/B glass filter. The radioactivity associated with the filter was measured in ACS II (Amarsham) by liquid scintillation counting. Percent inhibition of specific [^3 H]-PGE2 binding or IC50 value, the concentration required to compete with ^3 H-PGE2 receptor binding by 50% were calculated.

Row | SMILES | IC50 (Table I) | IC50 (Table II)
1 | O=C(O)CCC/C=C\C1CCCC1CNS(=O)(=O)c1ccc(Br)cc1 (stereo not drawn) | 1800 nM | –
2 | Cc1ccc(S(=O)(=O)NCC2CCCC2/C=C\CCCC(=O)O)cc1 (stereo not drawn) | 8000 nM | –
3 | Cc1ccc(S(=O)(=O)NC2C3CCC(C3)C2C/C=C\CCCC(=O)O)cc1 (racemic) [5 (b), a mixture of 7-[(1R,2S,3S, 4S)-3-tosylaminobicyclo[2.2.1]heptan-2-yl]-5Z-heptenoic acid and an isomer of (1S, 2S,3S,4R)] | 3400 nM | –
4 | Cc1ccc(S(=O)(=O)N[C@H]2C3CCC(CC3)[C@@H]2C/C=C\CCCC(=O)O)cc1 (relative stereo) [5 (a), 7-[(2S*,3S*)-3-tosylaminobicyclo[2.2.2]octan-2-yl]-5Z-heptenoic acid] | 3600 nM | –
5 | Cc1ccc(S(=O)(=O)N[C@H]2[C@H]3CC[C@H](C3)[C@@H]2C/C=C\CCCC(=O)O)cc1 (relative stereo) [5 (c), 7-[(1R*,2S*,3S*,4S*)-3-tosylaminobicyclo[2.2.1]heptan-2-yl]-5Z-heptenoic acid] | 5700 nM | –
6 | Cc1ccc(S(=O)(=O)N[C@H]2CCC[C@@H]2C/C=C\CCCC(=O)O)cc1 (relative stereo) [5 (g), 7-[(1R*,2S*)-2-tosylaminocyclopentyl-5Z-heptenoic acid] | 3500 nM | –
7 | O=C(O)CCC/C=C\C[C@H]1CCC[C@@H]1NS(=O)(=O)c1ccc(Br)cc1 (relative stereo) [5 (h), 7-[(1R*,2S*)-2-(4-bromophenylsulfonylamino)cyclopentyl]-5Z-heptenoic acid] | 200 nM | –
8 | O=C(O)CCC/C=C\C[C@H]1CCCC[C@@H]1NS(=O)(=O)/C=C/c1ccccc1 (relative stereo) [6 (19), 7-[(1R*, 2S*)-2-(2-phenylvinylsulfonylamino)cyclohexyl]-5Z-heptenoic] | – | 230 nM
9 | O=C(O)CCC/C=C\[C@@H]1CCC[C@@H](NS(=O)(=O)/C=C/c2ccccc2)C1 (relative stereo) [6 (21), 6-[(1R*, 3R*)-3-(2-phenylvinylsulfonylamino)cyclohexyl]-5Z-hexenoic] | – | 600 nM
10 | O=C(O)CCC/C=C\[C@@H]1CCC[C@@H](NS(=O)(=O)c2ccc(Br)cc2)C1 (relative stereo) [U.S. Pat. No. 5168101 1 (l)] | 2400 nM | –
11 | O=C(O)CCC/C=C\[C@@H]1CCC[C@H](NS(=O)(=O)c2ccc(Br)cc2)C1 (relative stereo) [U.S. Pat. No. 5168101 1 (m)] | 500 nM | –
12 | CC1(C)[C@H]2C[C@H](NS(=O)(=O)c3ccccc3)[C@@H](C/C=C\CCCC(=O)O)[C@@H]1C2 [3 (a), 7-[(1S,2S,3S,5R)-3-phenylsulfonylamino-6,6-dimethylbicyclo[3.1.1]heptan-2-yl]-5Z-heptenoic] | 7600 nM | –
13 | CCc1ccc(S(=O)(=O)N[C@H]2C[C@H]3C[C@@H]([C@@H]2C/C=C\CCCC(=O)O)C3(C)C)cc1 [3 (b), 7-[(1S,2S,3S,5R)-3-(4-ethylphenyl)sulfonylamino-6,6-dimethylbicyclo[3.1.1]heptan-2-yl]-5Z-heptenoic] | 570 nM | –
14 | CC(C)(C)c1ccc(S(=O)(=O)N[C@H]2C[C@H]3C[C@@H]([C@@H]2C/C=C\CCCC(=O)O)C3(C)C)cc1 [3 (c), 7-[(1S,2S,3S,5R)-3-(4-tert-butylphenyl)sulfonylamino-6,6-dimethylbicyclo[3.1.1]heptan-2-yl]-5Z-heptenoic acid] | 6300 nM | –
15 | COc1ccc(S(=O)(=O)N[C@H]2C[C@H]3C[C@@H]([C@@H]2C/C=C\CCCC(=O)O)C3(C)C)cc1 [3 (d), 7-[(1S,2S,3S,5R)-3-(4-methoxyphenyl)sulfonylamino-6,6-dimethylbicyclo[3.1.1]heptan-2-yl]-5Z-heptenoic acid] | 820 nM | –
16 | CC1(C)[C@H]2C[C@H](NS(=O)(=O)c3ccc(F)cc3)[C@@H](C/C=C\CCCC(=O)O)[C@@H]1C2 [3 (e), 7-[(1S,2S,3S,5R)-3-(4-fluorophenyl)sulfonylamino-6,6-imethylbicyclo[3.1.1]heptan-2-yl]-5Z-heptenoic] | 2600 nM | –
17 | CC1(C)[C@H]2C[C@H](NS(=O)(=O)c3ccc(Cl)cc3)[C@@H](C/C=C\CCCC(=O)O)[C@@H]1C2 [3 (f), 7-[(1S,2S,3S,5R)-3-(4-chlorophenyl)sulfonylamino-6,6-imethylbicyclo[3.1.1]heptan-2-yl]-5Z-heptenoic] | 750 nM | –
18 | CC1(C)[C@H]2C[C@H](NS(=O)(=O)c3ccc(I)cc3)[C@@H](C/C=C\CCCC(=O)O)[C@@H]1C2 [3 (g), 7-[(1S,2S,3S,5R)-3-(4-iodophenyl)sulfonylamino-6,6-dimethylbicyclo[3.1.1]heptan-2-yl]-5Z-heptenoic] | 54 nM | –

Row | SMILES | IC50 (Table I) | IC50 (Table II)
19 | CC1(C)[C@H]2C[C@H](NS(=O)(=O)c3ccc([N+](=O)[O-])cc3)[C@@H](C/C=C\CCCC(=O)O)[C@@H]1C2 [3 (h), 7-[(1S,2S,3S,5R)-3-(4-nitrophenyl)sulfonylamino-6,6-dimethylbicyclo[3.1.1]heptan-2-yl]-5Z-heptenoic] | 210 nM | –
20 | CC1(C)[C@H]2C[C@H](NS(=O)(=O)c3ccc4ccccc4c3)[C@@H](C/C=C\CCCC(=O)O)[C@@H]1C2 [3 (i), 7-[(1S,2S,3S,5R)-3-(2-naphtyl)sulfonylamino-6,6-dimethylbicyclo[3.1.1]heptan-2-yl]-5Z-heptenoic] | 90 nM | –
21 | CCCCS(=O)(=O)N[C@H]1C[C@H]2C[C@@H]([C@@H]1C/C=C\CCCC(=O)O)C2(C)C [3 (j), 7-[(1S,2S,3S,5R)-3-butylsulfonylamino-6,6-dimethylbicyclo[3.1.1]heptan-2-yl]-5Z-heptenoic acid] | 5000 nM | –
22 | CCCCCCS(=O)(=O)N[C@H]1C[C@H]2C[C@@H]([C@@H]1C/C=C\CCCC(=O)O)C2(C)C [3 (k), 7-[(1S,2S,3S,5R)-3-hexylsulfonylamino-6,6-dimethylbicyclo[3.1.1]heptan-2-yl]-5Z-heptenoic acid] | 25 nM | –
23 | CCCCCCCCS(=O)(=O)N[C@H]1C[C@H]2C[C@@H]([C@@H]1C/C=C\CCCC(=O)O)C2(C)C [3 (l), 7-[(1S,2S,3S,5R)-3-octylsulfonylamino-6,6-dimethylbicyclo[3.1.1]heptan-2-yl]-5Z-heptenoic acid] | 360 nM | –
24 | CC1(C)[C@H]2C[C@H](NS(=O)(=O)CCc3ccccc3)[C@@H](C/C=C\CCCC(=O)O)[C@@H]1C2 [3 (m), 7-[(1S,2S,3S,5R)-3-(2-phenylethyl)sulfonylamino-6,6-dimethylbicyclo[3.1.1]heptan-2-yl]-5Z-heptenoic acid] | 5.4 nM | –
25 | CC1(C)[C@H]2C[C@H](NS(=O)(=O)CCC3CCCCC3)[C@@H](C/C=C\CCCC(=O)O)[C@@H]1C2 [3 (n), 7-[(1S,2S,3S,5R)-3-(2-cyclohexylethyl)sulfonylamino-6,6-dimethylbicyclo[3.1.1]heptan-2-yl]-5Z-heptenoic acid] | 120 nM | –
26 | Cc1ccc(S(=O)(=O)N[C@H]2C3CCC(CC3)[C@@H]2C/C=C\CCCC(=O)O)cc1 [5 (d), 7-[(2S,3S)-3-tosylaminobicyclo[2.2.2]octan-2-yl]-5Z-heptenoic acid] | 2100 nM | –
27 | O=C(O)CCC/C=C\CC1CCCCC1NS(=O)(=O)c1ccc(Br)cc1 (stereo not drawn) [5 (e), 7-[2-(4-bromophenylsulfonylamino)cyclohexyl]-5Z-heptenoic acid] | 60 nM | –
28 | O=C(O)CCC/C=C\CC1CCCCC1NS(=O)(=O)c1ccc(Br)cc1 (stereo not drawn) [5 (f), 7-[2-(4-bromophenylsulfonylamino)cyclohexyl]-5Z-heptenoic acid] | 5000 nM | –
29 | O=C(O)CCCC=CC1C2CCC(C2)C1CNS(=O)(=O)c1ccc(Br)cc1 [5 (i), 6-[(1S,2S,3S,4R)-3-(4-bromophenylsulfonylaminomethyl)bicyclo[2.2.1]heptan-2-yl]-5Z-hexenoic acid] | 6500 nM | –
30 | CC1(C)[C@H]2C[C@H](NS(=O)(=O)/C=C/c3ccc(F)cc3)[C@@H](C/C=C\CCCC(=O)O)[C@@H]1C2 [6 (2), 7-[(1S, 2S, 3S, 5R)-3-[2-(4-fluorophenyl)vinylsulfonylamino]-6,6-dimethylbicyclo[3.1.1]heptan-2-yl]-5Z-heptenoic acid] | – | 3.6 nM
31 | CCCC/C=C/S(=O)(=O)N[C@H]1C[C@H]2C[C@@H]([C@@H]1C/C=C\CCCC(=O)O)C2(C)C [6 (14)] | – | 800 nM
32 | O=C(O)CCC/C=C\[C@@H]1[C@H]2CC[C@H](C2)[C@H]1CNS(=O)(=O)/C=C/c1ccccc1 [6 (18), 6-[(1S, 2S, 3R, 4R)-3-(2-phenylvinylsulfonylaminomethyl)bicyclo[2.2.1]heptan-2-yl]-5Z-hexenoic acid] | – | 17 nM
33 | O=C(O)CCC/C=C\[C@H]1CC[C@@H](NS(=O)(=O)/C=C/c2ccccc2)C1 [6 (22), 6-[(1S, 3R)-3-(2-phenylvinylsulfonyl-amino)cyclopentyl]-5Z-hexenoic] | – | 1800 nM
34 | CC1(C)[C@H]2C[C@H](NS(=O)(=O)/C=C/c3ccccc3)[C@@H](C/C=C/CCCC(=O)O)[C@@H]1C2 [6 (26), 7-[(1S, 2S, 3S, 5R)-3-(2-phenylvinylsulfonylamino)-6,6-dimethylbicyclo [3.1.1]heptan-2-yl]-5E-heptenoic acid] | – | 38 nM
35 | CC1(C)[C@H]2C[C@H](NS(=O)(=O)c3ccc(Br)cc3)[C@@H](C/C=C\CCCC(=O)O)[C@@H]1C2 [Example 2, 7-[(1S,2S,3S,5R)-3-(4-bromophenyl)sulfonylamino-6,6-dimethylbicyclo [3.1.1]heptan-2-yl]-5Z-heptenoic acid] | 440 nM | –
36 | Cc1ccc(S(=O)(=O)N[C@H]2[C@H]3CC[C@H](C3)[C@@H]2C/C=C\CCCC(=O)O)cc1 [Example 4, 7-[(1R,2S,3S,4S)-3-tosylaminobicyclo[2.2.1]heptan-2-yl]-5Z-heptenoic acid] | 3400 nM | –
